Measurements from the NIST ThermoML archive (doi:10.1016/j.tca.2011.08.002).
± gives the expanded uncertainty stated by the source.

Experiments:
[1] = 101 kPa, Liquid, Vibrating tube method
[2] = refractive index (Na D-line) (dimensionless); settings: 101.33 kPa, Liquid, Standard Abbe refractometry
[3] = refractive index (Na D-line) (dimensionless); xn = mol fraction of the nth substance listed; settings: 101 kPa, Liquid, Standard Abbe refractometry, x1 = 1
[4] = xn = mol fraction of the nth substance listed; settings: 101 kPa, Liquid, Vibrating tube method, x1 = 1

Row | SMILES | mass density ([1]; 303.15 K) | mass density ([1]; 308.15 K) | mass density ([1]; 313.15 K) | mass density ([1]; 318.15 K) | mass density ([1]; 323.15 K) | refractive index ([2]; 303.15 K) | refractive index ([2]; 308.15 K) | refractive index ([2]; 313.15 K) | refractive index ([2]; 318.15 K) | refractive index ([2]; 323.15 K) | refractive index ([3]; 303.15 K) | refractive index ([3]; 308.15 K) | refractive index ([3]; 313.15 K) | refractive index ([3]; 318.15 K) | refractive index ([3]; 323.15 K) | mass density ([4]; 303.15 K) | mass density ([4]; 308.15 K) | mass density ([4]; 313.15 K) | mass density ([4]; 318.15 K) | mass density ([4]; 323.15 K) | also measured
1 | CC(C)(C)O [2-methylpropan-2-ol] | 775.412 ± 0.14 kg/m3 | 770.193 ± 0.15 kg/m3 | 764.884 ± 0.15 kg/m3 | 759.488 ± 0.15 kg/m3 | 754.015 ± 0.15 kg/m3 | 1.38222 ± 0.00035 | 1.37947 ± 0.00035 | 1.37667 ± 0.00035 | 1.37384 ± 0.00035 | 1.37097 ± 0.00035 |  |  |  |  |  |  |  |  |  |  | 
2 | CC(C)(C)O [2-methylpropan-2-ol] + C1CCC(NC2CCCCC2)CC1 |  |  |  |  |  |  |  |  |  |  | 1.38222 ± 0.00035 | 1.37947 ± 0.00035 | 1.37667 ± 0.00035 | 1.37384 ± 0.00035 | 1.37097 ± 0.00035 | 775.412 ± 0.14 kg/m3 | 770.193 ± 0.15 kg/m3 | 764.884 ± 0.15 kg/m3 | 759.488 ± 0.15 kg/m3 | 754.015 ± 0.15 kg/m3 | 
3 | C1CCC(NC2CCCCC2)CC1 [N-cyclohexylcyclohexanamine] | 904.144 ± 0.23 kg/m3 | 900.372 ± 0.23 kg/m3 | 896.608 ± 0.23 kg/m3 | 892.847 ± 0.23 kg/m3 | 889.089 ± 0.23 kg/m3 | 1.47978 ± 0.0004 | 1.47761 ± 0.0004 | 1.47562 ± 0.0004 | 1.47347 ± 0.0004 | 1.47134 ± 0.0004 |  |  |  |  |  |  |  |  |  |  | mass density ([1]; 288.15 K): 915.498 ± 0.23 kg/m3; mass density ([1]; 293.15 K): 911.705 ± 0.23 kg/m3; mass density ([1]; 298.15 K): 907.923 ± 0.23 kg/m3; refractive index ([2]; 288.15 K): 1.48636 ± 0.0004; refractive index ([2]; 293.15 K): 1.48416 ± 0.0004; refractive index ([2]; 298.15 K): 1.48198 ± 0.0004
4 | CCCCO [butan-1-ol] | 801.923 ± 0.15 kg/m3 | 798.053 ± 0.15 kg/m3 | 794.147 ± 0.15 kg/m3 | 790.231 ± 0.15 kg/m3 | 786.238 ± 0.15 kg/m3 | 1.39523 ± 0.00036 | 1.39318 ± 0.00036 | 1.3911 ± 0.00036 | 1.38901 ± 0.00036 | 1.38688 ± 0.00036 |  |  |  |  |  |  |  |  |  |  | mass density ([1]; 288.15 K): 813.373 ± 0.14 kg/m3; mass density ([1]; 293.15 K): 809.573 ± 0.14 kg/m3; mass density ([1]; 298.15 K): 805.762 ± 0.15 kg/m3; refractive index ([2]; 288.15 K): 1.40135 ± 0.00036; refractive index ([2]; 293.15 K): 1.39932 ± 0.00036; refractive index ([2]; 298.15 K): 1.3973 ± 0.00036
5 | CCCCO [butan-1-ol] + C1CCC(NC2CCCCC2)CC1 |  |  |  |  |  |  |  |  |  |  | 1.39523 ± 0.00036 | 1.39318 ± 0.00036 | 1.3911 ± 0.00036 | 1.38901 ± 0.00036 | 1.38688 ± 0.00036 | 801.923 ± 0.15 kg/m3 | 798.053 ± 0.15 kg/m3 | 794.147 ± 0.15 kg/m3 | 790.231 ± 0.15 kg/m3 | 786.238 ± 0.15 kg/m3 | refractive index ([3]; 288.15 K): 1.40135 ± 0.00036; refractive index ([3]; 293.15 K): 1.39932 ± 0.00036; refractive index ([3]; 298.15 K): 1.3973 ± 0.00036; mass density ([4]; 288.15 K): 813.373 ± 0.14 kg/m3; mass density ([4]; 293.15 K): 809.573 ± 0.14 kg/m3; mass density ([4]; 298.15 K): 805.762 ± 0.15 kg/m3
6 | CCC(C)O (centres undefined) [butan-2-ol] | 798.326 ± 0.24 kg/m3 | 794.03 ± 0.24 kg/m3 | 789.632 ± 0.24 kg/m3 | 785.117 ± 0.24 kg/m3 | 780.515 ± 0.24 kg/m3 | 1.39293 ± 0.0004 | 1.39064 ± 0.0004 | 1.38832 ± 0.0004 | 1.38596 ± 0.0004 | 1.38352 ± 0.0004 |  |  |  |  |  |  |  |  |  |  | mass density ([1]; 288.15 K): 810.689 ± 0.24 kg/m3; mass density ([1]; 293.15 K): 806.646 ± 0.24 kg/m3; mass density ([1]; 298.15 K): 802.528 ± 0.24 kg/m3; refractive index ([2]; 288.15 K): 1.39951 ± 0.0004; refractive index ([2]; 293.15 K): 1.39736 ± 0.0004; refractive index ([2]; 298.15 K): 1.39515 ± 0.0004
7 | CCC(C)O (centres undefined) [butan-2-ol] + C1CCC(NC2CCCCC2)CC1 |  |  |  |  |  |  |  |  |  |  | 1.39293 ± 0.0004 | 1.39064 ± 0.0004 | 1.38832 ± 0.0004 | 1.38596 ± 0.0004 | 1.38352 ± 0.0004 | 798.326 ± 0.24 kg/m3 | 794.03 ± 0.24 kg/m3 | 789.632 ± 0.24 kg/m3 | 785.117 ± 0.24 kg/m3 | 780.515 ± 0.24 kg/m3 | refractive index ([3]; 288.15 K): 1.39951 ± 0.0004; refractive index ([3]; 293.15 K): 1.39736 ± 0.0004; refractive index ([3]; 298.15 K): 1.39515 ± 0.0004; mass density ([4]; 288.15 K): 810.689 ± 0.24 kg/m3; mass density ([4]; 293.15 K): 806.646 ± 0.24 kg/m3; mass density ([4]; 298.15 K): 802.528 ± 0.24 kg/m3
8 | CCCCCO [pentan-1-ol] | 807.278 ± 0.24 kg/m3 | 803.558 ± 0.24 kg/m3 | 799.817 ± 0.24 kg/m3 | 796.001 ± 0.24 kg/m3 | 792.166 ± 0.24 kg/m3 | 1.40595 ± 0.0004 | 1.40388 ± 0.0004 | 1.40189 ± 0.0004 | 1.39987 ± 0.0004 | 1.39776 ± 0.0004 |  |  |  |  |  |  |  |  |  |  | mass density ([1]; 288.15 K): 818.282 ± 0.24 kg/m3; mass density ([1]; 293.15 K): 814.635 ± 0.24 kg/m3; mass density ([1]; 298.15 K): 810.968 ± 0.24 kg/m3; refractive index ([2]; 288.15 K): 1.41192 ± 0.0004; refractive index ([2]; 293.15 K): 1.40994 ± 0.0004; refractive index ([2]; 298.15 K): 1.40796 ± 0.0004
9 | CCCCCO [pentan-1-ol] + C1CCC(NC2CCCCC2)CC1 |  |  |  |  |  |  |  |  |  |  | 1.40595 ± 0.0004 | 1.40388 ± 0.0004 | 1.40189 ± 0.0004 | 1.39987 ± 0.0004 | 1.39776 ± 0.0004 | 807.278 ± 0.24 kg/m3 | 803.558 ± 0.24 kg/m3 | 799.817 ± 0.24 kg/m3 | 796.001 ± 0.24 kg/m3 | 792.166 ± 0.24 kg/m3 | refractive index ([3]; 288.15 K): 1.41192 ± 0.0004; refractive index ([3]; 293.15 K): 1.40994 ± 0.0004; refractive index ([3]; 298.15 K): 1.40796 ± 0.0004; mass density ([4]; 288.15 K): 818.282 ± 0.24 kg/m3; mass density ([4]; 293.15 K): 814.635 ± 0.24 kg/m3; mass density ([4]; 298.15 K): 810.968 ± 0.24 kg/m3
10 | CCCO [propan-1-ol] | 795.65 ± 0.15 kg/m3 | 791.576 ± 0.15 kg/m3 | 787.466 ± 0.15 kg/m3 | 783.309 ± 0.15 kg/m3 | 779.095 ± 0.16 kg/m3 | 1.38153 ± 0.00036 | 1.37929 ± 0.00036 | 1.37702 ± 0.00036 | 1.37483 ± 0.00036 | 1.37252 ± 0.00036 |  |  |  |  |  |  |  |  |  |  | mass density ([1]; 288.15 K): 807.69 ± 0.15 kg/m3; mass density ([1]; 293.15 K): 803.703 ± 0.15 kg/m3; mass density ([1]; 298.15 K): 799.692 ± 0.15 kg/m3; refractive index ([2]; 288.15 K): 1.38785 ± 0.00036; refractive index ([2]; 293.15 K): 1.38578 ± 0.00036; refractive index ([2]; 298.15 K): 1.38364 ± 0.00036
11 | CCCO [propan-1-ol] + C1CCC(NC2CCCCC2)CC1 |  |  |  |  |  |  |  |  |  |  | 1.38153 ± 0.00036 | 1.37929 ± 0.00036 | 1.37702 ± 0.00036 | 1.37483 ± 0.00036 | 1.37252 ± 0.00036 | 795.65 ± 0.15 kg/m3 | 791.576 ± 0.15 kg/m3 | 787.466 ± 0.15 kg/m3 | 783.309 ± 0.15 kg/m3 | 779.095 ± 0.16 kg/m3 | refractive index ([3]; 288.15 K): 1.38785 ± 0.00036; refractive index ([3]; 293.15 K): 1.38578 ± 0.00036; refractive index ([3]; 298.15 K): 1.38364 ± 0.00036; mass density ([4]; 288.15 K): 807.69 ± 0.15 kg/m3; mass density ([4]; 293.15 K): 803.703 ± 0.15 kg/m3; mass density ([4]; 298.15 K): 799.692 ± 0.15 kg/m3
